CSCC[C@H](NC(=O)OCC1c2ccccc2-c2ccccc21)C(=O)O
solubility (mole fraction)
Conditions | 283.15 K | 288.15 K | 293.15 K | 298.15 K | 303.15 K | 308.15 K | 313.15 K | 318.15 K | 323.15 K
in 2-butanone | 0.0269 | 0.0314 | 0.0336 | 0.0406 | 0.0454 | 0.0513 | 0.0621 | 0.0695 | 0.0818
in acetone | 0.0457 | 0.0475 | 0.0553 | 0.0614 | 0.0722 | 0.0806 | 0.0892 | 0.0961 | 0.11
in acetonitrile | 0.00368 | 0.00465 | 0.00571 | 0.00724 | 0.00847 | 0.00974 | 0.0111 | 0.0127 | 0.0155
in isobutanol | 0.00438 | 0.00573 | 0.00736 | 0.0102 | 0.0136 | 0.0165 | 0.023 | 0.032 | 0.0402
in isopentanol | 0.00409 | 0.00489 | 0.00573 | 0.00778 | 0.00996 | 0.0126 | 0.0154 | 0.02 | 0.0248
in isopropanol | 0.00635 | 0.00765 | 0.00792 | 0.00932 | 0.0142 | 0.0213 | 0.0326 | 0.0474 | 0.0669
in n-butanol | 0.0142 | 0.0178 | 0.0204 | 0.0237 | 0.0295 | 0.0339 | 0.0394 | 0.0478 | 0.0542
in n-butyl acetate | 0.0129 | 0.015 | 0.0173 | 0.0203 | 0.0242 | 0.028 | 0.0347 | 0.0426 | 0.0532
in n-pentanol | 0.00977 | 0.0117 | 0.0149 | 0.019 | 0.0272 | 0.033 | 0.0399 | 0.0514 | 0.0667
in n-propanol | 0.0101 | 0.0141 | 0.0172 | 0.0231 | 0.0271 | 0.0324 | 0.0407 | 0.0496 | 0.0542
in n-propyl acetate | 0.0155 | 0.0181 | 0.021 | 0.0252 | 0.0295 | 0.0361 | 0.0399 | 0.043 | 0.0456
in sec-butanol | 0.00898 | 0.0109 | 0.0152 | 0.0223 | 0.0311 | 0.0438 | 0.0506 | 0.0612 | 0.0868

From BigSolDB 2.1
